In brackets after ≈: the same amount, converted by molar mass.
What was measured:
[1] = system: Haemophilus influenzae β- lactamase negative ampicillin-resistant clinical isolate
[2] = system: Staphylococcus aureus, strain ATCC 25923; details: ATCC 25923
[3] = system: Salmonella sp - multi-drug resistant clinical isolate; assay: MIC microbroth dilution (CLSI); assay type: cell-based
From the text: (§1) Cation-adjusted Mueller-Hinton broth (Oxoid Ltd., Basingstoke, UK and Trek Diagnostic Systems Ltd., East Grinstead, UK) (supplemented with 5% laked horse blood for Streptococcus spp., Corynebacterium jeikeium and Listeria monocytogenes) was used for aerobic bacteria, with an initial inoculum of approximately 10^5 colony-forming units (CFU)/mL.

[4] = system: Salmonella sp - antibiotic-susceptible clinical isolate; assay: MIC microbroth dilution (CLSI); assay type: cell-based
From the text: as §1

[5] = system: Shigella sp - antibiotic-susceptible clinical isolate; assay: MIC microbroth dilution (CLSI); assay type: cell-based
From the text: as §1

[6] = system: Propionibacterium acnes- antibiotic-susceptible clinical isolate; assay: MIC microbroth dilution (CLSI); assay type: cell-based; details: P. acnes antibiotic-susceptible
Experimental: Supplemented Brucella broth (SBB) was used for the anaerobic strains with an inoculum of approximately 10^6 CFU/mL. SBB is a broth consisting of 1% peptone, 0.5% ‘Lab-lemco’, 1% glucose and 0.5% sodium chloride supplemented with 5 […] vitamin K (both obtained from Sigma Aldrich Ltd.)

[7] = system: Group C Streptococcus - antibiotic-susceptible clinical isolate; assay type: cell-based
From the text: as §1

[8] = system: Staphylococcus saprophyticus - antibiotic susceptible clinical isolate; assay type: cell-based
From the text: as §1

[9] = system: Streptococcus bovis - antibiotic-susceptible clinical isolate; assay type: cell-based
From the text: as §1

[10] = system: EMRSA16 Staphylococcus aureus (MRSA) - SSCmec type 2; assay type: cell-based; details: EMRSA16 - SSCmec type 2
From the text: as §1

[11] = system: Staphylococcus epidermidis methicillin-resistant clinical isolate; assay type: cell-based
From the text: as §1

[12] = system: Streptococcus agalactiae - antibiotic-susceptible clinical isolate; assay type: cell-based
From the text: as §1

[13] = system: Staphylococcus aureus ATCC 25923 - antibiotic-susceptible control strain; assay type: cell-based
From the text: as §1

[14] = system: Enterococcus faecalis vancomycin-resistant (VanA) clinical isolate; assay type: cell-based
From the text: as §1

[15] = system: Staphylococcus epidermidis antibiotic susceptible clinical isolate; assay type: cell-based
From the text: as §1

[16] = system: Streptococcus pneumoniae - penicillin-susceptible clinical isolate; assay type: cell-based
From the text: as §1

[17] = system: EMRSA15 Staphylococcus aureus (MRSA) - SSCmec type 4; assay type: cell-based; details: EMRSA15 - SSCmec type 4
From the text: as §1

[18] = system: Group G Streptococcus - antibiotic-susceptible clinical isolate; assay type: cell-based
From the text: as §1

[19] = system: Streptococcus pyogenes - Macrolide (MLS) resistant clinical isolate; assay type: cell-based
From the text: as §1

[20] = system: Listeria monocytogenes - antibiotic-susceptible clinical isolate; assay type: cell-based
From the text: as §1

[21] = system: Enterobacter sp - multi-drug resistant clinical isolate; assay type: cell-based
From the text: as §1

[22] = system: Enterococcus faecium vancomycin-resistant (VanA) clinical isolate; assay type: cell-based
From the text: as §1

[23] = system: Staphylococcus aureus ATCC 29213 - antibiotic-susceptible control strain; assay type: cell-based
From the text: as §1

[24] = system: Staphylococcus haemolyticus - antibiotic susceptible clinical isolate; assay type: cell-based
From the text: as §1

[25] = system: Enterobacter sp - antibiotic-susceptible clinical isolate; assay type: cell-based
From the text: as §1

[26] = system: Escherichia coli ATCC25922 - antibiotic-susceptible type strain; assay type: cell-based
From the text: as §1

[27] = system: Staphylococcus aureus - multi-drug-resistant clinical isolate; assay type: cell-based
From the text: as §1

[28] = system: Staphylococcus aureus - teicoplanin-intermediate clinical isolate; assay type: cell-based
From the text: as §1

S. pyogenes = details: Table 5
[29] = system: Candida albicans ATCC24433 - reference strain; assay type: cell-based
Experimental: (§2) Yeast and filamentous fungal MIC were performed in MOPS buffered RPMI 1640 medium (MOPS buffer obtained from Sigma Aldrich Ltd., RPMI 1640 obtained from Invitrogen Ltd, Paisley, Scotland). The yeast inocula were in the range 7.5×10^2-4×10^3 CFU/mL and the filamentous fungi approximately 8×10^3-1×10^5 CFU/mL

[30] = system: Candida tropicalis ATCC750 - reference strain; assay type: cell-based
Experimental: as §2

[31] = system: Candida parapsilosis ATCC90018 - reference strain; assay type: cell-based
Experimental: as §2

[32] = system: Trichophyton interdigitale - G.R. Micro collection; assay type: cell-based
Experimental: as §2

[33] = system: Microsporum canis - G.R. Micro collection; assay type: cell-based
Experimental: as §2

[34] = system: Aspergillus niger - G.R. Micro collection; assay type: cell-based
Experimental: as §2

[35] = system: Candida albicans ATCC90028 - reference strain; assay type: cell-based
Experimental: as §2

[36] = system: Trichophyton mentagrophytes - G.R. Micro collection; assay type: cell-based
Experimental: as §2

[37] = system: Cryptococcus neoformans - G.R. Micro collection; assay type: cell-based
Experimental: as §2

Which MIC [1] does the source give for `CCCCCCNC(=O)[C@H](CCCNC(=N)N)NC(=O)[C@H](Cc1c(C(C)(C)C)[nH]c2c(C(C)(C)C)cc(C(C)(C)C)cc12)NC(=O)[C@@H](N)CCCNC(=N)N` [Compound 8] here?
Its MIC is 8 µg/mL (≈ 10.4 µM).

What about the “S. aureus (MIC)” value [2] of the same molecule?
Its value is 2 µg/mL.

And the MIC [3]?
The MIC was 8 µg/mL (≈ 10.4 µM).

And the MIC [4]?
Its MIC is 8 µg/mL (≈ 10.4 µM).

And the MIC [5]?
Its MIC is 4 µg/mL (≈ 5.21 µM).

What about the MIC [6] of the same molecule?
Its MIC is 4 µg/mL (≈ 5.21 µM).

What about the MIC [7] of the same molecule?
The MIC was 8 µg/mL (≈ 10.4 µM).

What about the MIC [8] of the same molecule?
The MIC was 0.5 µg/mL (≈ 0.651 µM).

What about the MIC [9] of the same molecule?
The MIC was 8 µg/mL (≈ 10.4 µM).

What about the MIC [10] of the same molecule?
Its MIC is 4 µg/mL (≈ 5.21 µM).

And the MIC [11]?
The MIC was 2 µg/mL (≈ 2.6 µM).

And the MIC [12]?
Its MIC is 8 µg/mL (≈ 10.4 µM).

What about the MIC [13] of the same molecule?
The MIC was 4 µg/mL (≈ 5.21 µM).

And the MIC [14]?
The MIC was 4 µg/mL (≈ 5.21 µM).

And the MIC [15]?
The MIC was 8 µg/mL (≈ 10.4 µM).

What about the MIC [16] of the same molecule?
The MIC was 8 µg/mL (≈ 10.4 µM).

What about the MIC [17] of the same molecule?
The MIC was 4 µg/mL (≈ 5.21 µM).

And the MIC [18]?
The MIC was 8 µg/mL (≈ 10.4 µM).

And the MIC [19]?
Its MIC is 8 µg/mL (≈ 10.4 µM).

What about the MIC [20] of the same molecule?
The MIC was 8 µg/mL (≈ 10.4 µM).

And the MIC [21]?
The MIC was 8 µg/mL (≈ 10.4 µM).

What about the MIC [22] of the same molecule?
The MIC was 4 µg/mL (≈ 5.21 µM).

What about the MIC [23] of the same molecule?
The MIC was 4 µg/mL (≈ 5.21 µM).

What about the MIC [24] of the same molecule?
The MIC was 4 µg/mL (≈ 5.21 µM).

What about the MIC [25] of the same molecule?
The MIC was 8 µg/mL (≈ 10.4 µM).

What about the MIC [26] of the same molecule?
Its MIC is 4 µg/mL (≈ 5.21 µM).

And the MIC [27]?
Its MIC is 4 µg/mL (≈ 5.21 µM).

And the MIC [28]?
The MIC was 4 µg/mL (≈ 5.21 µM).

And the “S. pyogenes (MIC)” value (S. pyogenes)?
The value was 2 µg/mL.

And the MIC [29]?
Its MIC is 8 µg/mL (≈ 10.4 µM).

What about the MIC [30] of the same molecule?
Its MIC is 4 µg/mL (≈ 5.21 µM).

What about the MIC [31] of the same molecule?
Its MIC is 8 µg/mL (≈ 10.4 µM).

And the MIC [32]?
The MIC was 4 µg/mL (≈ 5.21 µM).

What about the MIC [33] of the same molecule?
The MIC was 4 µg/mL (≈ 5.21 µM).

And the MIC [34]?
The MIC was 4 µg/mL (≈ 5.21 µM).

And the MIC [35]?
Its MIC is 4 µg/mL (≈ 5.21 µM).

And the MIC [36]?
Its MIC is 4 µg/mL (≈ 5.21 µM).

And the MIC [37]?
The MIC was 2 µg/mL (≈ 2.6 µM).

— US20230338609A1, “MEDICAL DEVICES AND MATERIALS COMPRISING BIODEGRADABLE POLYESTERS” (AMICOAT AS, priority 2020, published 2023)
